Test results published in patent publication US8067470B2, “Linoleic acid preparations for the topical treatment of male and female pattern androgenetic alopecia, age-related alopecia, and keratosis pilaris” (priority 2008, dated 2011).

Experiments:
balding scalp = experiment: observation of balding scalp in a person treated with 13-cis-retinoic acid for cystic acne; format: in vivo, human; details: person treated for five months for cystic acne
Text: Linoleic acid has been proven in vitro to prevent growth of P. acnes in culture at concentrations similar to the normal level found in follicles not influenced by DHT stimulation of oil production. […] 8 Leyden, James J. M D et al., “Qualitative and Quantitative Changes in Cutaneous Bacteria Associated with Systemic Isotretinoin Therapy for Acne Conglobata”, Journal of Investigative Dermatology, Vol. 86, 390-393, 1986.

P. acnes [1] = details: parallel to reduction of sebaceous gland oil production; cited from earlier work
male pattern AGA = details: cited from earlier work
P. acnes [2] = details: prior art of this inventor; cited from earlier work
keratosis pilaris = experiment: topical linoleic acid oil in patients with keratosis pilaris; format: in vivo, human; details: in the form of an oil, more than 20 patients
Text: In pre-pubertal children prior to hormonal stimulation of facial oil production, it can be seen transiently on the cheeks, typically the least oily part of the face. […] The histology is reminiscent of the intra-follicular hyperkeratosis and low-level microinflammation seen in AGA follicles, except that AGA scalp follicles are larger and have large sebaceous glands opening into them. It is likely that localized linoleic acid deficiency with resultant aberrations in keratinization and in inflammation, due to permissive changes in microflora such as P. acnes and yeasts, is its etiology. Topical linoleic acid preparations would therefore be a logical approach to the treatment of the condition.

## CC1=C(/C=C/C(C)=C/C=C/C(C)=C\C(=O)O)C(C)(C)CCC1 [13-cis-retinoic acid]
Balding scalp
  terminal (full sized) hair growth in balding scalp: increased terminal (full sized) hair growth
P. acnes [1]
  P. acnes counts in acne-prone skin: parallel and equal reduction in P. acnes counts

## CC(C)(C)NC(=O)[C@H]1CC[C@H]2[C@@H]3CC[C@H]4NC(=O)C=C[C@]4(C)[C@H]3CC[C@]12C [finasteride]
Male pattern AGA; after one month, oral
  recipients who lost less scalp hair: 95%
Male pattern AGA; after six months, oral
  recipients who began regrowing lost hairs: 67%
Male pattern AGA; in vivo
  balding recipients showing poor or no response: ≥ 35%

## CCCCC/C=C\C/C=C\CCCCCCCC(=O)O [linoleic acid]
P. acnes [2]
  concentration required to completely inhibit growth of P. acnes in culture: 2%
Keratosis pilaris
  roughness and redness of clinical keratosis pilaris: amelioration of both the roughness and redness
